In US10219516B2, “Molecules having pesticidal utility, and intermediates, compositions, and processes, related thereto” (priority 2015, dated 2019):
Read-outs that look alike come from different tables or passages of the source.

How the values were obtained:
Type in all cases: in vivo
[1] = test system: Beet Armyworm (Spodoptera exigua, LAPHEG); assay: Bioassay on Beet Armyworm (BAW), 128-well diet tray assay
Procedure, shortened: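 Diet in each of eight wells received 50 μg/cm^2 of test molecule (90:10 acetone-water, dried), then one to five second-instar larvae were added. Mortality (%) was scored after five to seven days at 25° C. under 14:10 light-dark and averaged across the wells.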

[2] = test system: Yellow Fever Mosquito (Aedes aegypti, AEDSAE); assay: Bioassay on Yellow Fever Mosquito (YFM), 96-well plate larval assay; settings: for YFM rating: Yellow Fever Mosquito, 96-well plate larval assay; for YFM (Biological Results, rating): Species YFM (Yellow Fever Mosquito)
Procedure, shortened: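 Compound stocks at 4000 ppm in DMSO were diluted with 90:10 water/acetone, and 15 μL aliquots were dispensed into six replicate plates. About 1-day-old larvae in liver-powder water were added per well. Plates were covered and held at room temperature for 3 days before each well was scored for mortality.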

[3] = test system: Cabbage Looper (Trichoplusia ni, TRIPNI); assay: Bioassay on Cabbage Looper (CL), 128-well diet tray assay; settings: Trichoplusia ni
Procedure, shortened: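 Diet-incorporation-free surface assay: 50 μg/cm^2 compound in acetone-water (90:10), dried on diet; 1–5 2nd-instar larvae/well; 8 wells; vented cover; 25° C., 14:10 L:D, 5–7 d; % mortality averaged over wells.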

[4] = Beet Armyworm, 128-well diet tray assay, read-out: BAW rating
[5] = Cabbage Looper, 128-well diet tray assay, read-out: CL rating
[6] = Species BAW (Beet Armyworm), read-out: BAW (Biological Results, rating)
[7] = Species CL (Cabbage Looper), read-out: CL (Biological Results, rating)

SMILES | pest or weed control at 50 µg/cm2 [1, 4] | YFM rating [2] | pest or weed control at 50 µg/cm2 [3, 5] | pest or weed control at 50 µg/cm2 [1, 6] | YFM (Biological Results, rating) [2] | pest or weed control at 50 µg/cm2 [3, 7]
O=C1Cc2cc(NC(=O)c3cc(NC(=O)[C@H]4[C@H](c5cc(Cl)cc(Cl)c5)C4(Cl)Cl)ccc3Cl)ccc2N1 (relative stereo) [F472, 2-Chloro-5-(trans)-(2,2-dichloro-3-(3,5-dichlorophenyl)cyclopropane-1-carboxamido)-N-(2-oxoindolin-5-yl)benzamide] | 50 to 100% | A (80-100) | 50 to 100% |  |  | 
CNc1ccc(N(C)C(=O)c2cc(NC(=O)[C@H]3[C@H](c4cc(Cl)c(Cl)c(Cl)c4)C3(Cl)Cl)ccc2Cl)c(C)c1 (relative stereo) [F226, trans-2-Chloro-5-(2,2-dichloro-3-(3,4,5-trichlorophenyl)cyclopropane-1-carboxamido)-N-methyl-N-(2-methyl-4-(methylamino)phenyl)benzamide] |  |  |  | 50 to 100% | A (80-100) | 50 to 100%
O=C(Nc1ccc(F)cc1F)c1cc(NC(=O)[C@H]2[C@H](c3ccc(F)c(F)c3)C2(Cl)Cl)ccc1Cl (relative stereo) [F346, 2-Chloro-5-(trans)-(2,2-dichloro-3-(3,4-difluorophenyl)cyclopropane-1-carboxamido)-N-(2,4-difluorophenyl)benzamide] |  |  |  | 50 to 100% | A (80-100) | 50 to 100%
CN(C(=O)c1cc(NC(=O)[C@H]2[C@H](c3ccc(Br)c(Cl)c3)C2(Cl)Cl)ccc1Cl)c1ccc(F)cc1 (relative stereo) [F307, 5-(trans-3-(4-Bromo-3-chlorophenyl)-2,2-dichlorocyclopropane-1-carboxamido)-2-chloro-N-(4-fluorophenyl)-N-methylbenzamide] |  |  |  | 50 to 100% | A (80-100) | 50 to 100%
CN(C(=O)c1cc(NC(=O)[C@H]2[C@H](c3cc(Cl)cc(C(F)F)c3)C2(Cl)Cl)ccc1Cl)c1ccc(F)cc1 (relative stereo) [F592, 2-Chloro-5-(trans-2,2-dichloro-3-(3-chloro-5-(difluoromethyl)phenyl)cyclopropane-1-carboxamido)-N-(4-fluorophenyl)-N-methylbenzamide] | 50 to 100% | A (80-100) | 50 to 100% |  |  | 
CNc1ccc(NC(=O)c2cc(NC(=O)[C@H]3[C@H](c4cc(Cl)cc(Cl)c4)C3(Cl)Cl)ccc2Cl)cc1F (relative stereo) [F176, trans-2-Chloro-5-(2,2-dichloro-3-(3,5-dichlorophenyl)cyclopropane-1-carboxamido)-N-(3-fluoro-4-(methylamino)phenyl)benzamide] |  |  |  | 50 to 100% | A (80-100) | 50 to 100%
O=C(Nc1ccc(-n2ccnc2)cc1)c1cc(NC(=O)[C@H]2[C@H](c3cc(Cl)cc(Cl)c3)C2(Cl)Cl)ccc1Cl (relative stereo) [PF56, trans-N-(4-(1H-Imidazol-1-yl)phenyl)-2-chloro-5-(2,2-dichloro-3-(3,5-dichlorophenyl)cyclopropane-1-carboxamido)benzamide] | 50 to 100% | A (80-100) | 50 to 100% |  |  | 
O=C(Nc1ccc(I)cc1)c1cc(NC(=O)[C@H]2[C@H](c3cc(Cl)cc(Cl)c3)C2(Cl)Cl)ccc1Cl (relative stereo) [F193, trans-2-Chloro-5-(2,2-dichloro-3-(3,5-dichlorophenyl)cyclopropane-1-carboxamido)-N-(4-iodophenyl)benzamide] |  |  |  | 50 to 100% | B (More than 0-Less than 80) | 50 to 100%
CC(C)(C)c1cc2cc(NC(=O)c3cc(NC(=O)[C@H]4[C@H](c5cc(Cl)cc(Cl)c5)C4(Cl)Cl)ccc3Cl)ccc2[nH]1 (relative stereo) [F486, N-(2-(tert-Butyl)-1H-indol-5-yl)-2-chloro-5-(trans)-(2,2-dichloro-3-(3,5-dichlorophenyl)cyclopropane-1-carboxamido)benzamide] | 50 to 100% | A (80-100) | 50 to 100% |  |  | 
O=C(Nc1ccc(F)cc1F)c1cc(NC(=O)[C@H]2[C@H](c3ccc(Br)c(Cl)c3)C2(Cl)Cl)ccc1Cl (relative stereo) [F306, 5-(trans-3-(4-Bromo-3-chlorophenyl)-2,2-dichlorocyclopropane-1-carboxamido)-2-chloro-N-(2,4-difluorophenyl)benzamide] |  |  |  | 50 to 100% | A (80-100) | 50 to 100%
N#Cc1cc(F)ccc1NC(=O)c1cccc(NC(=O)[C@H]2[C@H](c3cc(Cl)c(Cl)c(Cl)c3)C2(Cl)Cl)c1 (relative stereo) [F267, trans-N-(2-cyano-4-fluorophenyl)-3-(2,2-dichloro-3-(3,4,5-trichlorophenyl)cyclopropane-1-carboxamido)benzamide] |  |  |  | 50 to 100% | B (More than 0-Less than 80) | 50 to 100%
O=C(Nc1ccc(F)cc1)c1cc(NC(=O)[C@H]2[C@H](c3ccc(C(F)(F)F)cc3)C2(Cl)Cl)ccc1Cl (relative stereo) [F81, trans-2-Chloro-5-(2,2-dichloro-3-(4-(trifluoromethyl)phenyl)cyclopropane-1-carboxamido)-N-(4-fluorophenyl)benzamide] |  |  |  | 50 to 100% | A (80-100) | 50 to 100%
C=C(F)c1cc([C@H]2[C@H](C(=O)Nc3ccc(Cl)c(C(=O)Nc4ccc(F)cc4F)c3)C2(Cl)Cl)ccc1Cl (relative stereo) [F385, 2-Chloro-5-(trans-2,2-dichloro-3-(4-chloro-3-(1-fluorovinyl)phenyl)cyclopropane-1-carboxamido)-N-(2,4-difluorophenyl)benzamide] | 50 to 100% | A (80-100) | 50 to 100% |  |  | 
CN(C)c1ccc(NC(=O)c2cc(NC(=O)[C@H]3[C@H](c4cc(Cl)cc(Cl)c4)C3(Cl)Cl)ccc2Cl)cc1 (relative stereo) [F171, trans-2-Chloro-5-(2,2-dichloro-3-(3,5-dichlorophenyl)cyclopropane-1-carboxamido)-N-(4-(dimethylamino)phenyl)benzamide] |  |  |  | 50 to 100% | A (80-100) | 50 to 100%
O=C(Nc1ccc(F)cc1F)c1cc(NC(=O)[C@H]2[C@H](c3cc(F)cc(F)c3)C2(Cl)Cl)ccc1Cl (relative stereo) [F411, 2-Chloro-5-(trans)-(2,2-dichloro-3-(3,5-difluorophenyl)cyclopropane-1-carboxamido)-N-(2,4-difluorophenyl)benzamide] | 50 to 100% | A (80-100) | 50 to 100% |  |  | 
CN(C(=O)c1cc(NC(=O)[C@H]2[C@H](c3ccc(Cl)c(Cl)c3)C2(Cl)Cl)ccc1F)c1ccccc1 (relative stereo) [F67, trans-5-(2,2-Dichloro-3-(3,4-dichlorophenyl)cyclopropane-1-carboxamido)-2-fluoro-N-methyl-N-phenylbenzamide] |  |  |  | 50 to 100% | B (More than 0-Less than 80) | 50 to 100%
O=C(Nc1ccc(F)cc1)c1cc(NC(=O)C2C(c3cc(Cl)cc(Cl)c3)[C@@H]2Cl)ccc1Cl (stereo partly drawn) [F212, 2-Chloro-5-((2S)-2-chloro-3-(3,5-dichlorophenyl)cyclopropane-1-carboxamido)-N-(4-fluorophenyl)benzamide] |  |  |  | 50 to 100% | A (80-100) | 50 to 100%
O=C(Nc1ccc(-n2cnnc2)cc1)c1cc(NC(=O)[C@H]2[C@H](c3cc(Cl)cc(Cl)c3)C2(Cl)Cl)ccc1Cl (relative stereo) [PF102, trans-N-(4-(4H-1,2,4-Triazol-4-yl)phenyl)-2-chloro-5-(2,2-dichloro-3-(3,5-dichlorophenyl)cyclopropane-1-carboxamido)benzamide] | 50 to 100% | A (80-100) | 50 to 100% |  |  | 
O=C(Nc1ccc(F)cc1F)c1cc(NC(=O)[C@H]2[C@H](c3ccc(C(F)(F)F)c(Br)c3)C2(Cl)Cl)ccc1Cl (relative stereo) [F365, 5-(trans)-(3-(3-Bromo-4-(trifluoromethyl)phenyl)-2,2-dichlorocyclopropane-1-carboxamido)-2-chloro-N-(2,4-difluorophenyl)benzamide] |  |  |  | 50 to 100% | A (80-100) | 50 to 100%
O=C(Nc1ccc(F)cc1F)c1cc(NC(=O)[C@@H]2[C@@H](c3ccc(F)c(Cl)c3)C2(Cl)Cl)ccc1Cl [F534, 2-Chloro-5-((1S,3S)-2,2-dichloro-3-(3-chloro-4-fluorophenyl)cyclopropane-1-carboxamido)-N-(2,4-difluorophenyl)benzamide] | 50 to 100% | A (80-100) | 50 to 100% |  |  | 
CN(C(=O)c1cc(NC(=O)[C@H]2[C@H](c3cc(Cl)c(Cl)c(Cl)c3)C2(Cl)Cl)ccc1F)c1ccc(F)cc1F (relative stereo) [F65, trans-5-(2,2-Dichloro-3-(3,4,5-trichlorophenyl)cyclopropane-1-carboxamido)-N-(2,4-difluorophenyl)-2-fluoro-N-methylbenzamide] |  |  |  | 50 to 100% | A (80-100) | 50 to 100%
